{"source": "patent US8598342B2", "about": "“Methods and compounds for antimicrobial intervention” (President and Fellows of Harvard College, priority 2008, dated 2013)", "key": {"S. aureus TarF": {"target": "T1, S. aureus TarF (Staphylococcus aureus, UniProt Q2G1C1)", "T1 construct": "made in house", "T1 sequence (Q2G1C1 1-389)": "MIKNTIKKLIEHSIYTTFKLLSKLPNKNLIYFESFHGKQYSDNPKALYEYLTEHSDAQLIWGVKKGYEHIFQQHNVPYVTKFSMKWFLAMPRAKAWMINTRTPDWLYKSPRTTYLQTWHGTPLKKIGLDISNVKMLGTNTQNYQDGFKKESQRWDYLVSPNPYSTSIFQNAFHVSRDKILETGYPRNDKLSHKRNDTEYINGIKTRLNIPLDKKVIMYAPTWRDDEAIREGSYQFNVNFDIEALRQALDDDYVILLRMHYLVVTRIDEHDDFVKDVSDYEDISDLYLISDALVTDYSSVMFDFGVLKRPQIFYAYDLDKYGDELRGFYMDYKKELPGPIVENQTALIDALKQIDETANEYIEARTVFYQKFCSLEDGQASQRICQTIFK", "assay": "In vitro enzyme inhibition assay, TarF (radiometric)", "type": "biochemical", "conditions": "targocil 50 μg/mL; enzyme 200 nM", "procedure": "S. aureus TarB, D, F, I, and L were cloned, overexpressed and purified as described previously (S. Brown, Y. H. Zhang, S. Walker, Chemistry & Biology 15, 12, Jan. 2008.) Radiometric in vitro assays were run to test the inhibitory effects of targocil on Tar B, D, F, and L, while TarI was assayed for targocil inhibition using an HPLC assay using conditions similar to those previously reported (ibid). See below for exact reaction conditions. […] In each case, a reaction with no targocil served as a negative control (active enzymatic reaction) and a reaction with heat-treated enzyme served as a positive control (no enzymatic reaction). Targocil was incubated with all reaction components except the substrates at room temperature. After 10 minutes, substrates were added and the reactions were allowed to proceed for 60 minutes. The reactions were quenched with DMF and the products were imaged/monitored as previously described (ibid).\nTarF in vitro inhibition assay protocol. Each 3 μL reaction contained 1 μM [14C]-GroP-ManNAc β-(1,4)-GlcNAc-pp-farnesyl, 3 μM [14C]-CDP-glycerol, 20 mM Tris base pH 7.5, 100 mM NaCl, 10 mM MgCl2, 200 nM TarF. The reactions were quenched and imaged as described above for TarB."}, "[1]": {"test_system": "S. aureus RN4220 TarG:W73C (m5)", "assay": "MIC analysis of RN4220 carrying the mutant tarG allele TarG:W73C", "type": "cell-based, Staphylococcus aureus", "conditions": "mutant allele exchanged into RN4220", "excerpt": "(§1) Therefore, we conclude that TarG is a target of targocil. […] (Davidson A L, Dassa E, Orelle C, & Chen J (2008) Microbiology and Molecular Biology Reviews 72:317-364) In addition to functioning as antibiotics, inhibitors such as targocil, and derivatives thereof, could be valuable tools for mechanistic and structural analyses of ABC transporters."}, "[2]": {"test_system": "wildtype S. aureus RN4220", "assay": "MIC / growth inhibition of wildtype S. aureus RN4220 (optical density)", "type": "cell-based", "conditions": "Staphylococcus aureus", "procedure": "(§2) (A) Targocil MIC data for a panel of Gram-positive strains, including MRSA clinical isolates B5271 and 5340A. Growth was monitored in triplicate after 12 h at 28° C. using optical density. (B) Two dimensional drug interaction analysis between tunicamycin and targocil grown for 18 h at 30° C. […] At higher concentrations, tunicamycin is toxic because it inhibits cell wall biosynthesis. […] Varying concentrations of drug were added to […] of S. aureus RN4220 after 5 h and cell count was monitored over time at 30° C. […] Cells were grown at 28° C. for 12 h and monitored for growth using optical density (OD600). Data were normalized to the DMSO controls for each strain. (E) Two classes of mutants were examined: phage resistant (m1 3) and phage sensitive (m4-5).\nA library of 55,000 small molecules was screened in duplicate at a concentration of ˜40 μM against S. aureus RN4220 and the corresponding ΔtarO strain using optical density to monitor growth. We obtained 45 initial hits and confirmed three lead compounds that inhibited the growth of the wildtype strain but had no activity against the ΔtarO strain. […] (FIG. 16A and FIG. 18) (Lazarevic V, Abellan F X, Moller S B, Karamata D, & Mauel C (2002) Microbiology-Sgm 148:815-824)\nOn the night before screening, a single colony of each strain was grown in TSB (Cm 10). On the day of screening, 384 well plates (Corning® 3710) were filled with […] of TSB (Cm 10). […]\nThe following day the plates were read using a Perkin Elmer Envision plate reader for both OD600 and fluorescence at the appropriate wavelength for Gfp ([…]) and Mcherry ([…]). Data were collected and analyzed to identify compounds that killed the wildtype strain but not the ΔtanO mutant. […]\nFor a secondary screen, hits from the primary screen were evaluated against wildtype and the ΔtarO mutant as described above, but the compound was investigated using a four point dose-response curve starting at a concentration of 50 μM and doing two-fold serial dilutions. […]"}, "[3]": {"test_system": "strain overexpressing S. aureus TarGH", "assay": "Growth of S. aureus RN4220 overexpressing S. aureus tarGH", "type": "cell-based, Staphylococcus aureus", "conditions": "28° C., 12 h, OD600", "procedure": "as §2"}, "[4]": {"test_system": "IPTG-inducible tarO strain of S. aureus", "assay": "Growth of the IPTG-inducible tarO strain as a function of targocil concentration", "type": "cell-based, Staphylococcus aureus", "excerpt": "(Top) Schematic of the IPTG-inducible tarO operon. […] Data were normalized to the DMSO controls for each strain."}, "S. aureus RN4220": {"test_system": "S. aureus RN4220", "assay": "Kill curve analysis", "type": "cell-based, Staphylococcus aureus", "conditions": "10^6 cfu/mL S. aureus RN4220, 30° C.", "procedure": "as §2"}, "[5]": {"test_system": "S. aureus RN4220 TarG:F82L (m4)", "assay": "MIC analysis of RN4220 carrying the mutant tarG allele TarG:F82L", "type": "cell-based, Staphylococcus aureus", "conditions": "mutant allele exchanged into RN4220", "excerpt": "as §1"}}, "note": "Entries after “also recorded” stand apart in the source; their conditions may differ. Where two headings read alike, the source gives them in different places.", "data": [{"compound": "CCN(CC)c1nc2c(S(=O)(=O)c3ccccc3)nnn2c2ccc(Cl)cc12", "note": "[7-chloro-N,N-diethyl-3-(phenylsulfonyl)-[1,2,3]triazolo[1,5-a]quinazolin-5-amine]", "values": [{"measurement": "inhibition of TarF", "setting": "S. aureus TarF", "result": "None of these enzymes was inhibited"}, {"measurement": "resistance to targocil of TarG:W73C strain", "setting": "[1]", "result": "fully resistant; also recorded: confer resistance"}, {"measurement": "MIC", "setting": "[2]; read-out: minimum inhibitory concentration (MIC)", "result": 1.3, "unit": "mg/L"}, {"measurement": "MIC", "setting": "[2]; result of the WTA inhibitor screen, read-out: minimum inhibitory concentration", "result": "~3", "unit": "µM"}, {"measurement": "MIC", "setting": "[2]; wildtype S. aureus RN4220, read-out: minimum inhibitory concentration (MIC)", "result": 3, "unit": "µM"}, {"measurement": "resistance to targocil of strain overexpressing S. aureus TarGH", "setting": "[3]", "result": "partially resistant; also recorded: partial resistance"}, {"measurement": "effect on cell growth, tarO not induced", "setting": "[4]; in the absence of IPTG", "result": "no effect"}, {"measurement": "effect on cell growth, tarO induced", "setting": "[4]; in the presence of IPTG", "result": "inhibited cell growth"}, {"measurement": "mode of action in kill curve (bacteriostatic or bactericidal)", "setting": "S. aureus RN4220", "result": "bacteriostatic"}, {"measurement": "resistance to targocil of TarG:F82L strain", "setting": "[5]", "result": "fully resistant; also recorded: confer resistance"}]}]}
